According to patent US20260125359A1, “HETEROARYL COMPOUNDS AS MULTI-TARGET PROTEIN KINASE INHIBITORS” (FUJIAN HAIXI PHARMACEUTICALS CO., LTD., priority 2023, published 2026):

What follows are compounds tested on M-NFS-60 cells (assay: M-NFS-60 cell in vitro assay (CCK, 48 h, M-CSF factor medium)). Conditions: M-NFS-60 cells; read-out: M-NFS-60cellassay IC50.
Type: cell-based
Protocol: To determine the inhibitory activity of compounds on M-NFS-60 cells.
• M-NFS-60 cell line (ATCC, Cat. No.: CRL-1838) • RPMI-1640 medium (Gibco, domestic subpackage, Cat. No.: C11875500BT) • Recombinant Mouse CSF1/M-CSF (Sino Biological Inc., Cat. No.: 51112-MNAH) • PAN/Serum (BioTECH, Cat. No.: P30-2602) • Trypsin/0.05% Trypsin-EDTA (Gibco, Cat. No.: 25300-062) • 0.4% Trypan Blue (Sigma, Cat. No.: T8154-20 ml) • Penicillin-Streptomycin (Hyclone, Cat. No.: SV30010) • DMSO (Solarbio, Cat. No.: D8371) • PBS (Solarbio, Cat. No.: P1020) • CCK (AbMole BioScience, Cat. No.: M4839-500Tests)
• 1) M-CSF factor stock solution: take 10 μg of powdered m-CSF factor, add 0.4 ml of saline, formulate 25 ug/ml and store at −80° C. • 2) M-CSF factor (25 ng/ml) medium: • 1640 (Gibco)+10% PAN+100×Penicillin-Streptomycin+100×M-CSF stock solution • 3) Complete medium: • 1640 (Gibco)+10% PAN+100×Penicillin-Streptomycin • 4) Compound preparation: 2-3 mg of the compound was added to DMSO to formulate a 30 mM stock solution, −80° C. refrigerator storage
• 1) Cell resuscitation: the frozen cells in the cryovial were thawed rapidly by shaking in a 37° C. water bath, then 4 mL of medium was added. After mixing evenly, they were centrifuged at 125×g for 5 min, and the supernatant was discarded. The cells were resuspended and transferred to the culture flasks, and were cultured in a 5% CO2 fully saturated humidity incubator. • 2) Cell passaging: M-NFS-60 cells are semi-suspension cells, which were collected directly in a 15 mL centrifuge tube, centrifuged at 125×g for 5 min. and the supernatant was discarded. The cells were resuspended and passaged into new culture flasks at a ratio of 1:5 to 1:10. • 3) After the newly resuscitated cells were passaged 1-2 times for cell stabilization, compound inhibition assays were started when the cells were in the logarithmic growth phase. • (a) Cell collection and counting: the same as the cell passaging step, centrifuge in two tubes, one tube with M-CSF factor medium to resuspend the cells, the other tube with complete medium to resuspend the cells. Take 10 μL of cell suspension in each tube, and count the cells by Tepan blue staining. • (b) Dilute the cell solution according to the concentration of inoculated cells respectively, the concentration of M-NFS-60 cells inoculated with factor was 5.56×10^4 cells/mL, and the concentration of inoculated without factor was 5×10^4 cells/mL. • (c) Seed plate: 384 well plate inoculated with M-NFS-60 cells, 36 uL/well, triplicate wells, the number of inoculated cells was equivalent to 2000 cells/well, set with blank control, factor free negative control, normal control, DMSO control and experimental wells. The cells were placed in a 5% CO2 fully saturated humidity incubator for 4 h. • (d) Sampling compounds: 96 well plates were used for compound preparation. The compound solution prepared in advance was diluted to corresponding gradient concentration with DMSO. An appropriate amount of the diluted solution in the previous step was added to an equal volume of factor containing medium. The 96 well plates were centrifuged at 1000 rpm for 5 min, which played the role of defoaming and spinning down droplets and condensation. Remove the 384 well plate from the incubator, add the diluted compound solution into each well sequentially, 4 μL/well; DMSO wells and normal wells were added with corresponding factor containing medium, 4 μL/well. Then it was put into CO2 incubator for 48 h. • (e) After incubation for 48 h, CCK was added to each well, 4 uL, and the plates were placed in the incubator for another 2 h, and then the OD (optical density) value at 450 nm was measured by microplate reader.
The IC50 values for each test compound were fitted using professional graphing and analysis software.
Compound `Cn1cc(-c2cncc(N[C@@H]3CCc4c(NC(=O)c5cccc(C(F)(F)F)c5F)cccc43)n2)cn1` [Compound 25d] has an IC50 greater than 500 nM. `COc1cccc(NC(=O)c2cccc3c2CC[C@@H]3Oc2cnc3cn(C)nc3c2)c1F` [Compound 76az] was tested, and the IC50 was less than 50 nM. Compound `Cn1ncc2ncc(O[C@H]3CCc4c(NC(=O)c5cccc(C6CC6)c5)ccc(F)c43)cc21` [Compound 78a] has an IC50 of less than 50 nM. `Cn1cc(-c2cncc(N[C@H]3CCc4c(C(=O)Nc5ccc(Cl)cc5)cccc43)c2)cn1` [Compound 14an] showed an IC50 of less than 50 nM. `CN(C)Cc1cccc(NC(=O)c2cccc3c2CC[C@@H]3Oc2cc(-c3cnn(C)c3)cnc2N)c1` [Compound 5e] was tested, and the IC50 was less than 50 nM. For `CN1CCC[C@@H]1c1nc(Nc2cccc3c2CC[C@@H]3Nc2cnc3cn(C)nc3c2)no1` [Compound 93b], the IC50 was 50 to 200 nM. `Cn1ncc2ncc(O[C@H]3CCc4c(C(=O)Nc5nn(C)c6ccccc56)cccc43)cc21` [Compound 76ao] showed an IC50 of less than 50 nM. `O=C(Nc1cccc(C2CC2)c1)c1cccc2c1CC[C@@H]2Nc1cnc2ccnn2c1` [Compound 74g] showed an IC50 of less than 50 nM. `CN1CCN(c2ccc(NC(=O)c3cccc4c3CC[C@@H]4Nc3cncc(-c4cnn(C)c4)c3)cc2)CC1` [Compound 14aq] was tested, and the IC50 was 200 to 500 nM. `Cn1cc2ncc(N[C@H]3CCc4c(Nc5ncc(C(C)(C)C)s5)cccc43)cc2n1` [Compound 91h] showed an IC50 of less than 50 nM. `CN(c1cncc(-c2cnn(C)c2)c1)[C@H]1CCc2c(C(=O)Nc3nn(C)c4ccccc34)cccc21` [Compound 22g] was tested, and the IC50 was less than 50 nM. With `Cn1cc2ncc(N[C@H]3CCc4c(Nc5cc(C67CC(F)(C6)C7)on5)cccc43)cc2n1` [Compound 91s] the IC50 was less than 50 nM. Compound `Cn1ncc2ncc(O[C@H]3CCc4c(C(=O)Nc5cccc(C6CC6)c5)cccc43)cc21` [Compound 76ab] has an IC50 of less than 50 nM. In the case of `CN(C)Cc1ccc(NC(=O)c2cccc3c2CC[C@@H]3Oc2cc(-c3cnn(C)c3)cnc2N)cc1` [Compound 5d], the IC50 is reported as less than 50 nM. Work on `Cn1cc(-c2cncc(N[C@H]3CCc4c(C(=O)NN5CCCCC5)cccc43)n2)cn1` [Compound 27j] yielded an IC50 greater than 500 nM. Compound `Cc1cccc(C(=O)Nc2cccc3c2CC[C@H]3Oc2cncc(-c3cnn(C)c3)c2)c1` [Compound 16, (R)-3-methyl-N-(1-((5-(1-methyl-1H-pyrazol-4-yl)pyridin-3-yl)oxy)-2,3-dihydro-1H-inden-4-yl)benzamide] has an IC50 greater than 500 nM. `COc1ccc(NC(=O)c2cccc3c2CC[C@@H]3Nc2cncc(-c3cnn(C)c3)c2)cc1` [Compound 14am] was tested, and the IC50 was less than 50 nM. With `CN(c1cnc2cnn(C)c2c1)[C@H]1CCc2c(C(=O)Nc3cncc(Cl)c3)cccc21` [Compound 80e, (S)—N-(5-chloropyridin-3-yl)-1-(methyl (1-methyl-1H-pyrazolo[4,3-b]pyridin-6-yl)amino)-2,3-dihydro-1H-indene-4-carboxamide] the IC50 was less than 50 nM. `Cn1cc(-c2cnc(N)c(O[C@H]3CCc4c(NC(=O)c5csc6ccccc56)cccc43)c2)cn1` [Compound 3d] gave an IC50 of less than 50 nM. `Cc1ccc(F)c(NC(=O)c2cccc3c2CC[C@@H]3N(C)c2cnc3cn(C)nc3c2)c1` [Compound 80n] gave an IC50 of less than 50 nM. With `Cc1cccc(NC(=O)c2cccc3c2CC[C@@H]3Nc2cncc(-c3cnn(C)c3)n2)c1` [Compound 26, (S)-1-((6-(1-methyl-1H-pyrazol-4-yl)pyrazin-2-yl)amino)-N-(m-tolyl)-2,3-dihydro-1H-indene-4-carboxamide] the IC50 was less than 50 nM. `CN(C)Cc1cc(NC(=O)c2cccc3c2CC[C@@H]3Oc2cncc(-c3cnn(C)c3)c2)ccc1C(F)(F)F` [Compound 19q] was tested, and the IC50 was less than 50 nM. `Cn1cc(-c2cncc(N[C@H]3CCc4c(C(=O)Nc5cccc(C6CC6)c5)cc(F)cc43)c2)cn1` [Compound 51b] showed an IC50 of less than 50 nM. `CN(C)CCOc1cccc(NC(=O)c2cccc3c2CC[C@@H]3Oc2cncc(-c3cnn(C)c3)c2)c1` [Compound 19r] showed an IC50 of 50 to 200 nM. Work on `COc1cccc(C(=O)Nc2cccc3c2CCC3Oc2cc(Br)cnc2N)c1` (centres unmarked) [Compound 1f, N-(1-((2-amino-5-bromopyridin-3-yl)oxy)-2,3-dihydro-1H-inden-4-yl)-3-methoxybenzamide] yielded an IC50 of 50 to 200 nM. With `CN(C)C(=O)c1cccc2c1CC[C@@H]2Nc1cncc(-c2cnn(C)c2)n1` [Compound 27d] the IC50 was greater than 500 nM. With `COc1cc(NC(=O)c2cccc3c2CC[C@@H]3Nc2cncc(-c3cnn(C)c3)n2)ccc1F` [Compound 27o] the IC50 was less than 50 nM. `Cn1cc(-c2cnc(N)c(O[C@H]3CCc4c(NC(=O)c5cccc(C(F)(F)F)c5)cccc43)c2)cn1` [Compound 3e] showed an IC50 of less than 50 nM. In the case of `Cn1cc(-c2cncc(N[C@H]3CCc4c(Nc5ncc(C(C)(C)C)s5)cccc43)c2)cn1` [Compound 42m], the IC50 is reported as 50 to 200 nM. For `Cc1cccc(C(=O)Nc2ccc(F)c3c2CC[C@@H]3Nc2cncc(-c3cnn(C)c3)c2)c1` [Compound 45, (S)—N-(7-fluoro-1-((5-(1-methyl-1H-pyrazol-4-yl)pyridin-3-yl)amino)-2,3-dihydro-1H-inden-4-yl)-3-methylbenzamide], the IC50 was less than 50 nM. `Cc1cc(NC(=O)c2cccc3c2CC[C@@H]3Oc2cnc3cnn(C)c3c2)ccc1F` [Compound 76am] gave an IC50 of less than 50 nM. In the case of `Cn1cc(-c2cncc(N[C@H]3CCc4c(NC5CCCCC5)cccc43)n2)cn1` [Compound 60a], the IC50 is reported as greater than 500 nM. With `Cn1cc(-c2cncc(NC3CCc4c(NC(=O)c5cccc(C6CC6)c5)ccnc43)c2)cn1` (centres unmarked) [Compound 44e] the IC50 was 200 to 500 nM. `CN(C)Cc1cccc(NC(=O)c2cccc3c2CC[C@@H]3Nc2cncc(-c3cnn(C)c3)c2)c1` [Compound 14az] was tested, and the IC50 was 50 to 200 nM. Work on `COc1cc(NC(=O)c2cccc3c2CC[C@@H]3Oc2cnc3cn(C)nc3c2)ccc1F` [Compound 76aq] yielded an IC50 of less than 50 nM. Compound `Clc1cncc(N[C@H]2CCc3c(Nc4nc5c(s4)CCCC5)cccc32)c1` [Compound 42f] has an IC50 greater than 500 nM. Compound `CN(C)Cc1cccc(NC(=O)c2cccc3c2CC[C@@H]3N(C)c2cncc(-c3cnn(C)c3)c2)c1` [Compound 22d] has an IC50 of 50 to 200 nM. Compound `Cn1cc2ncc(N[C@H]3CCc4c(Nc5noc(C6(C)CCCC6)n5)cccc43)cc2n1` [Compound 93m] has an IC50 of less than 50 nM. With `CN1CCc2nc(Nc3cccc4c3CC[C@@H]4Nc3cncc(Cl)c3)sc2C1` [Compound 42g] the IC50 was greater than 500 nM. `Cc1cccc(C(=O)Nc2cccc3c2CC(F)C3Nc2cncc(-c3cnn(C)c3)c2)c1` (centres unmarked) [Compound 44c] was tested, and the IC50 was 50 to 200 nM. For `CN1CCc2cc(NC(=O)c3cccc4c3CC[C@@H]4Nc3cncc(-c4cnn(C)c4)c3)ccc2C1` [Compound 14ay], the IC50 was 50 to 200 nM. With `Cc1cncc(NC(=O)c2cccc3c2CC[C@@H]3Oc2cnc3cn(C)nc3c2)c1` [Compound 76ba] the IC50 was less than 50 nM. In the case of `COc1cc(NC(=O)c2cccc3c2CC[C@@H]3Oc2cnc3cnn(C)c3c2)ccc1F` [Compound 76ad], the IC50 is reported as less than 50 nM. `CN1CCN(c2cccc(NC(=O)c3cccc4c3CC[C@@H]4Nc3cncc(-c4cnn(C)c4)c3)c2)CC1` [Compound 14ai] was tested, and the IC50 was 50 to 200 nM. With `Cc1c(Nc2cccc3c2CC[C@@H]3Nc2cncc(Cl)c2)noc1C(C)(C)C` [Compound 40d, (S)—N^4-(5-(ter-butyl)-4-methylisoxazol-3-yl)-N^1-(5-chloropyridin-3-yl)-2,3-dihydro-1H-indene-1,4-diamine] the IC50 was 50 to 200 nM. Compound `Cn1cc(-c2cnc(N)c(O[C@H]3CCc4c(NC(=O)c5cccc(CN6CCCC6)c5)cccc43)c2)cn1` [Compound 3i] has an IC50 greater than 500 nM.

Same assay, conditions: read-out: M-NFS-60cellassay IC50(nM)
Compound `Cc1cccc(NC(=O)c2cccc3c2CC[C@@H]3Nc2cncc(C3=CCN(C)CC3)n2)c1` [Compound 33, (S)-1-((6-(1-methyl-1,2,3,6-tetrahydropyridin-4-yl)pyrazin-2-yl)amino)-N-(m-tolyl)-2,3-dihydro-1H-indene-4-carboxamide] has an IC50 of 50 to 200 nM.
